# Where two headings read alike, the source gives them in different places.
# Experiment: First-in-human Part 2 multiple ascending dose q.d. blood and urine PK
# Assay type: in vivo
# Settings: human, oral; for Cmax: read-out: Cmax; for MRT: read-out: MRT; for Vd/F: read-out: Vss/F; for half-life: read-out: T½ (converted)
# From the text: First-in-human study in up to approximately 168 healthy volunteers (HVs), of which 64 (in Parts 2 & 4) had asymptomatic atopic diathesis. • Part 1 was a double-blind (subject and investigator blind, sponsor unblinded), placebo-controlled single ascending dose (SAD) escalation study of 10 cohorts (N=80) • Part 2 was a double-blind (subject and investigator blind, sponsor unblinded), placebo-controlled multiple ascending dose (MAD) (13 doses over 12 days) escalation study employing once daily dosing in 6 cohorts in healthy volunteers with asymptomatic atopic diathesis (N=48) • Part 3 was a single dose open-label crossover food effect study in 12 HVs • Part 4 was a double-blind (subject and investigator blind, sponsor unblinded), placebo-controlled multiple dose (25 doses over 12 days) study employing twice daily dosing in 2 cohorts of healthy volunteers with asymptomatic atopic diathesis (N=16)
# In Parts 2 and 4, subjects were admitted on Day −2 or −1 for baseline safety assessments and to confirm eligibility. Eligible subjects received the first dose of compound (I) under fasting conditions on Day 1, and continued to take study medication under fasting conditions up to and including Day 12. Subjects were domiciled from Day −2 or −1 until the morning of Day 16, which equals 96 hours after the last dose of compound (I) was received. In Parts 2 and 4, the study medication was given once daily and twice daily respectively (details are found in the schedule of assessments).
# Subjects were assigned to one of the following 6 cohorts. In each cohort, 8 subjects were randomized to either compound (I) or matching placebo in a 6:2 ratio. • Cohort 1: multiple oral doses of 10 mg compound (I) or matching placebo • Cohort 2: multiple oral doses of 25 mg compound (I) or matching placebo • Cohort 3: multiple oral doses of 50 mg compound (I) or matching placebo • Cohort 4: multiple oral doses of 100 mg compound (I) or matching placebo • Cohort 5: multiple oral doses of 400 mg compound (I) or matching placebo • Cohort 6: multiple oral doses of up to 600 mg compound (I) or matching placebo
# Pharmacokinetic samples were obtained in blood and evaluated in all subjects at all dose levels. The samples from placebo subjects were not analyzed. The samples for PK assessments from subjects were collected at time points defined in the study. Compound (I) concentrations were determined in blood by a validated LC-MS/MS method.
# [1] = blood, 10 mg, 10 mg qd, Day 1, blood, Median (Min-Max)
# [2] = blood, 10 mg, 10 mg qd, Day 12, blood, Median (Min-Max)
# [3] = blood, 25 mg, 25 mg qd, Day 1, blood, Median (Min-Max)
# [4] = blood, 25 mg, 25 mg qd, Day 12, blood, Median (Min-Max)
# [5] = blood, 50 mg, 50 mg qd, Day 1, blood, Median (Min-Max)
# [6] = blood, 50 mg, 50 mg qd, Day 12, blood, Median (Min-Max)
# [7] = blood, 100 mg, 100 mg qd, Day 12, blood, Median (Min-Max)
# [8] = blood, 400 mg, 400 mg qd, Day 12, blood, Median (Min-Max)
# [9] = blood, 600 mg, 600 mg qd, Day 12, blood, Median (Min-Max)
smiles,measurement,setting,value
"C=CC(=O)N(C)CCOc1c(N)ncnc1-c1cc(F)cc(NC(=O)c2ccc(C3CC3)cc2F)c1C [Compound of Formula (I), N-(3-(6-Amino-5-(2-(N-methylacrylamido)ethoxy)pyrimidin-4-yl)-5-fluoro-2-methylphenyl)-4-cyclopropyl-2-fluorobenzamide]",AUC(0-t),"blood, 10 mg, 10 mg qd, Day 1, blood, Median (Min-Max), read-out: AUClast",4.4 ng·h/mL
same,Cmax,[1],8.03 ng/mL
same,MRT,[1],0.766 h
same,Vd/F,"blood, 10 mg, 10 mg qd, Day 12, blood, Mean ± SD",554 ± 90.4 L
same,Tmax,[2],0.625 h
same,Cmax,[2],17.2 ng/mL
same,Vd/F,[2],562 L
same,AUC(0-t),"blood, 25 mg, 25 mg qd, Day 1, blood, Mean ± SD, read-out: AUC0-24",44.9 ± 25.2 ng·h/mL
same,AUC(0-t),"blood, 25 mg, 25 mg qd, Day 1, blood, Mean ± SD, read-out: AUClast",43.9 ± 24.6 ng·h/mL
same,MRT,"blood, 25 mg, 25 mg qd, Day 1, blood, Mean ± SD",1.18 ± 0.49 h
same,AUC(0-t),"blood, 25 mg, 25 mg qd, Day 1, blood, Median (Min-Max), read-out: AUC0-24",46.6 ng·h/mL
same,AUC(0-t),"blood, 25 mg, 25 mg qd, Day 1, blood, Median (Min-Max), read-out: AUClast",45.5 ng·h/mL
same,Cmax,[3],37.3 ng/mL
same,MRT,[3],1.17 h
same,Vd/F,"blood, 25 mg, 25 mg qd, Day 12, blood, Mean ± SD",407 ± 208 L
same,Cmax,[4],78.4 ng/mL
same,Vd/F,[4],334 L
same,AUC(0-t),"blood, 50 mg, 50 mg qd, Day 1, blood, Mean ± SD, read-out: AUC0-24",116 ± 32.9 ng·h/mL
same,AUC(0-t),"blood, 50 mg, 50 mg qd, Day 1, blood, Mean ± SD, read-out: AUClast",113 ± 34.2 ng·h/mL
same,MRT,"blood, 50 mg, 50 mg qd, Day 1, blood, Mean ± SD",2.53 ± 1.17 h
same,Tmax,[5],0.5 h
same,AUC(0-t),"blood, 50 mg, 50 mg qd, Day 1, blood, Median (Min-Max), read-out: AUC0-24",107 ng·h/mL
same,AUC(0-t),"blood, 50 mg, 50 mg qd, Day 1, blood, Median (Min-Max), read-out: AUClast",103 ng·h/mL
same,Cmax,[5],70.1 ng/mL
same,MRT,[5],2.44 h
same,Vd/F,"blood, 50 mg, 50 mg qd, Day 12, blood, Mean ± SD",431 ± 172 L
same,Tmax,[6],1 h
same,Vd/F,[6],346 L
same,MRT,"blood, 100 mg, 100 mg qd, Day 1, blood, Median (Min-Max)",2.16 h
same,Vd/F,"blood, 100 mg, 100 mg qd, Day 12, blood, Mean ± SD",1910 ± 2780 L
same,Cmax,[7],205 ng/mL
same,Vd/F,[7],338 L
same,AUC(0-t),"blood, 400 mg, 400 mg qd, Day 1, blood, Median (Min-Max), read-out: AUC0-24",826 ng·h/mL
same,AUC(0-t),"blood, 400 mg, 400 mg qd, Day 1, blood, Median (Min-Max), read-out: AUClast",826 ng·h/mL
same,MRT,"blood, 400 mg, 400 mg qd, Day 1, blood, Median (Min-Max)",2.94 h
same,Vd/F,"blood, 400 mg, 400 mg qd, Day 12, blood, Mean ± SD",4400 ± 3340 L
same,Cmax,[8],476 ng/mL
same,Vd/F,[8],3440 L
same,AUC(0-t),"blood, 600 mg, 600 mg qd, Day 1, blood, Median (Min-Max), read-out: AUC0-24",932 ng·h/mL
same,AUC(0-t),"blood, 600 mg, 600 mg qd, Day 1, blood, Median (Min-Max), read-out: AUClast",931 ng·h/mL
same,MRT,"blood, 600 mg, 600 mg qd, Day 1, blood, Median (Min-Max)",3.22 h
same,Vd/F,"blood, 600 mg, 600 mg qd, Day 12, blood, Mean ± SD",7130 ± 5120 L
same,Cmax,[9],475 ng/mL
same,Vd/F,[9],7070 L
same,concentration at 24 h,"blood, multiple doses, typical, read-out: blood concentration at 24 hours post last dose",< 1 ng/mL
same,AUC(0-inf),"whole blood, 10 mg, 10 mg qd, Day 12, blood, Mean ± SD",24.7 ± 3.65 ng·h/mL
same,AUC(0-t),"whole blood, 10 mg, 10 mg qd, Day 12, blood, Mean ± SD, read-out: AUC0-24",24 ± 3.6 ng·h/mL
same,AUC(0-t),"whole blood, 10 mg, 10 mg qd, Day 12, blood, Mean ± SD, read-out: AUClast",22.9 ± 3.5 ng·h/mL
same,AUC(0-inf),"whole blood, 10 mg, 10 mg qd, Day 12, blood, Median (Min-Max)",24.3 ng·h/mL
same,AUC(0-t),"whole blood, 10 mg, 10 mg qd, Day 12, blood, Median (Min-Max), read-out: AUC0-24",23.6 ng·h/mL
same,AUC(0-t),"whole blood, 10 mg, 10 mg qd, Day 12, blood, Median (Min-Max), read-out: AUClast",22.4 ng·h/mL
same,AUC(0-inf),"whole blood, 25 mg, 25 mg qd, Day 12, blood, Mean ± SD",117 ± 60.4 ng·h/mL
same,AUC(0-t),"whole blood, 25 mg, 25 mg qd, Day 12, blood, Mean ± SD, read-out: AUC0-24",117 ± 60.9 ng·h/mL
same,AUC(0-t),"whole blood, 25 mg, 25 mg qd, Day 12, blood, Mean ± SD, read-out: AUClast",114 ± 59.7 ng·h/mL
same,AUC(0-inf),"whole blood, 25 mg, 25 mg qd, Day 12, blood, Median (Min-Max)",102 ng·h/mL
same,AUC(0-t),"whole blood, 25 mg, 25 mg qd, Day 12, blood, Median (Min-Max), read-out: AUC0-24",101 ng·h/mL
same,AUC(0-t),"whole blood, 25 mg, 25 mg qd, Day 12, blood, Median (Min-Max), read-out: AUClast",98.2 ng·h/mL
same,AUC(0-inf),"whole blood, 50 mg, 50 mg qd, Day 12, blood, Mean ± SD",209 ± 80 ng·h/mL
same,AUC(0-t),"whole blood, 50 mg, 50 mg qd, Day 12, blood, Mean ± SD, read-out: AUC0-24",209 ± 80.2 ng·h/mL
same,AUC(0-t),"whole blood, 50 mg, 50 mg qd, Day 12, blood, Mean ± SD, read-out: AUClast",207 ± 80.4 ng·h/mL
same,AUC(0-inf),"whole blood, 50 mg, 50 mg qd, Day 12, blood, Median (Min-Max)",181 ng·h/mL
same,AUC(0-t),"whole blood, 50 mg, 50 mg qd, Day 12, blood, Median (Min-Max), read-out: AUC0-24",181 ng·h/mL
same,AUC(0-t),"whole blood, 50 mg, 50 mg qd, Day 12, blood, Median (Min-Max), read-out: AUClast",179 ng·h/mL
same,AUC(0-inf),"whole blood, 100 mg, 100 mg qd, Day 12, blood, Mean ± SD",577 ± 207 ng·h/mL
same,AUC(0-inf),"whole blood, 100 mg, 100 mg qd, Day 12, blood, Median (Min-Max)",595 ng·h/mL
same,AUC(0-t),"whole blood, 100 mg, 100 mg qd, Day 12, blood, Median (Min-Max), read-out: AUC0-24",429 ng·h/mL
same,AUC(0-t),"whole blood, 100 mg, 100 mg qd, Day 12, blood, Median (Min-Max), read-out: AUClast",444 ng·h/mL
same,AUC(0-inf),"whole blood, 400 mg, 400 mg qd, Day 12, blood, Mean ± SD",1330 ± 608 ng·h/mL
same,AUC(0-inf),"whole blood, 400 mg, 400 mg qd, Day 12, blood, Median (Min-Max)",1210 ng·h/mL
same,AUC(0-t),"whole blood, 400 mg, 400 mg qd, Day 12, blood, Median (Min-Max), read-out: AUC0-24",1140 ng·h/mL
same,AUC(0-t),"whole blood, 400 mg, 400 mg qd, Day 12, blood, Median (Min-Max), read-out: AUClast",1180 ng·h/mL
same,AUC(0-inf),"whole blood, 600 mg, 600 mg qd, Day 12, blood, Mean ± SD",1260 ± 338 ng·h/mL
same,AUC(0-inf),"whole blood, 600 mg, 600 mg qd, Day 12, blood, Median (Min-Max)",1090 ng·h/mL
same,AUC(0-t),"whole blood, 600 mg, 600 mg qd, Day 12, blood, Median (Min-Max), read-out: AUC0-24",1060 ng·h/mL
same,half-life,"whole blood, 10 mg qd, Day 12, blood, Median (Min-Max)",0.961 h
same,half-life,"whole blood, 25 mg qd, Day 12, blood, Median (Min-Max)",1.15 h
same,half-life,"whole blood, 50 mg qd, Day 12, blood, Median (Min-Max)",1.15 h

# Reference: US12383556B2, “Methods of treating Sjögren's syndrome using a Bruton's tyrosine kinase inhibitor” (NOVARTIS AG, priority 2019, dated 2025)
